According to patent publication US8044082B2, “N-phenylacetamide inhibitors of the enzyme SOAT-1 and pharmaceutical/cosmetic compositions comprised thereof” (Galderma Research & Development, priority 2007, dated 2011):

Row | Structure (SMILES) | melting point
1 | CC(C)c1cccc(C(C)C)c1NC(=O)CN1C(=O)N(c2ccccc2)C2(CCCCC2)C1=O [compound (I.2), N-(2,6-Diisopropylphenyl)-2-(2,4-dioxo-1-phenyl-1,3-diazaspiro[4.5]dec-3-yl)acetamide] | 245 °C
2 | Cc1cc(C(=O)N(C)C2CCCCC2)cc(C)c1NC(=O)CN1C(=O)N(c2ccccc2)C2(CCCCC2)C1=O [compound (I.3), N-(Cyclohexyl)-4-[2-(2,4-dioxo-1-phenyl-1,3-diazaspiro[4.5]dec-3-yl]-acetylamino]-3,5,N-trimethylbenzamide] | 177 °C
3 | Cc1cc(C(=O)N(C)c2ccccc2)cc(C)c1NC(=O)CN1C(=O)N(c2ccccc2)C2(CCCCC2)C1=O [compound (I.4), 4-[2-(2,4-Dioxo-1-phenyl-1,3-diazaspiro[4.5]dec-3-y]acetylamino]-3,5,N-tri methyl-N-phenylbenzamide] | 242 °C
4 | CC(C)c1cccc(C(C)C)c1NC(=O)CN1C(=O)N(c2ccc(Cl)cc2)C2(CCCCC2)C1=O [compound (I.6), 2-[1-(4-Chlorophenyl)-2,4-dioxo-1,3-diazaspiro[4.5]dec-3-yl]-N-(2,6-di-isopropylphenyl)acetamide] | 237 °C
5 | COc1ccc(N2C(=O)N(CC(=O)Nc3c(C(C)C)cccc3C(C)C)C(=O)C23CCCCC3)cc1 [compound (I.8), N-(2,6-Diisopropylphenyl)-2-[1-(4-methoxyphenyl)-2,4-dioxo-1,3-diazaspiro[4.5]dec-3-yl]acetamide] | 193 °C
6 | CC(C)c1cccc(C(C)C)c1NC(=O)CN1C(=O)N(c2ccccc2)C2(CCCCCC2)C1=O [compound (I.9), N-(2,6-Diisopropylphenyl)-2-(2,4-dioxo-1-phenyl-1,3-diazaspiro[4.6]undec-3-yl)acetamide] | 230 °C
7 | CC(C)c1cccc(C(C)C)c1NC(=O)CN1C(=O)N(c2cccc(F)c2)C2(CCCCC2)C1=O [compound (I.11), N-(2,6-Diisopropylphenyl)-2-[1-(3-fluorophenyl)-2,4-dioxo-1,3-diazaspiro[4.5]dec-3-yl]acetamide] | 234 °C
8 | CC(C)c1cccc(C(C)C)c1NC(=O)CN1C(=O)N(c2cccc(Cl)c2)C2(CCCCC2)C1=O [compound (I.12), 2-[1-(3-Chlorophenyl)-2,4-dioxo-1,3-diazaspiro[4.5]dec-3-yl]-N-(2,6-di-isopropylphenyl)acetamide] | 240 °C
9 | CC(C)c1cccc(C(C)C)c1NC(=O)CN1C(=O)N(C2CCCC2)C2(CCCCC2)C1=O [compound (I.13), 2-(1-Cyclopentyl-2,4-dioxo-1,3-diazaspiro[4.5]dec-3-yl)-N-(2,6-diisopropyl-phenyl)acetamide] | 257 °C
10 | CC(C)c1cccc(C(C)C)c1NC(=O)CN1C(=O)N(C2CCCCCC2)C2(CCCCC2)C1=O [compound (I.15)] | 248 °C
11 | Cc1cccc(N2C(=O)N(CC(=O)Nc3c(C(C)C)cccc3C(C)C)C(=O)C23CCCCC3)c1 [compound (I.16), N-(2,6-Diisopropylphenyl)-2-(2,4-dioxo-1-m-tolyl-1,3-diazaspiro[4.5]dec-3-yl)acetamide] | 215 °C
12 | CC(C)c1cccc(C(C)C)c1NC(=O)CN1C(=O)N(c2ccc(F)cc2)C2(CCCC2)C1=O [compound (I.17), N-(2,6-Diisopropylphenyl)-2-[1-(4-fluorophenyl)-2,4-dioxo-1,3-diazaspiro[4.4]non-3-yl]acetamide] | 268 °C
13 | COc1cccc(N2C(=O)N(CC(=O)Nc3c(C(C)C)cccc3C(C)C)C(=O)C23CCCCC3)c1 [compound (I.18), N-(2,6-Diisopropylphenyl)-2-[1-(3-methoxyphenyl)-2,4-dioxo-1,3-diazaspiro[4.5]dec-3-yl]acetamide] | 198 °C
14 | CC(C)c1cccc(C(C)C)c1NC(=O)CN1C(=O)N(c2ccccc2F)C2(CCCCC2)C1=O [compound (I.19)] | 231 °C
15 | CC(C)c1cccc(C(C)C)c1NC(=O)CN1C(=O)N(c2ccccc2Cl)C2(CCCCC2)C1=O [compound (I.20), 2-[1-(2-Chlorophenyl)-2,4-dioxo-1,3-diazaspiro[4.5]dec-3-yl]-N-(2,6-di-isopropylphenyl)acetamide] | 252 °C
16 | Cc1ccccc1N1C(=O)N(CC(=O)Nc2c(C(C)C)cccc2C(C)C)C(=O)C12CCCCC2 [compound (I.21), N-(2,6-Diisopropylphenyl)-2-(2,4-dioxo-1-o-tolyl-1,3-diazaspiro[4.5]dec-3-yl)acetamide] | 238 °C
17 | CC(C)c1cccc(C(C)C)c1NC(=O)CN1C(=O)N(Cc2ccccc2)C2(CCCCC2)C1=O [compound (I.22), 2-(1-Benzyl-2,4-dioxo-1,3-diazaspiro[4.5]dec-3-yl)-N-(2,6-diisopropyl-phenyl)acetamide] | 214 °C
18 | CC(C)c1cccc(C(C)C)c1NC(=O)CN1C(=O)N(c2ccc(Cl)cc2)C2(CCCC2)C1=O [compound (I.24), 2-[1-(4-Chlorophenyl)-2,4-dioxo-1,3-diazaspiro[4.4]non-3-yl]-N-(2,6-di-isopropylphenyl)acetamide] | 270 °C
19 | CCCN1C(=O)N(CC(=O)Nc2c(C(C)C)cccc2C(C)C)C(=O)C12CCCCC2 [compound (I.25), N-(2,6-Diisopropylphenyl)-2-(2,4-dioxo-1-propyl-1,3-diazaspiro[4.5]dec-3-yl)acetamide] | 253 °C
20 | CC(C)c1cccc(C(C)C)c1NC(=O)CN1C(=O)N(CC2CCCCC2)C2(CCCCC2)C1=O [compound (I.27), 2-(1-Cyclohexylmethyl-2,4-dioxo-1,3-diazaspiro[4.5]dec-3-yl)-N-(2,6-di-isopropylphenyl)acetamide] | 219 °C
21 | CC(C)CN1C(=O)N(CC(=O)Nc2c(C(C)C)cccc2C(C)C)C(=O)C12CCCCC2 [compound (I.28), N-(2,6-Diisopropylphenyl)-2-(1-isobutyl-2,4-dioxo-1,3-diazaspiro[4.5]dec-3-yl)acetamide] | 233 °C
22 | CCCCCN1C(=O)N(CC(=O)Nc2c(C(C)C)cccc2C(C)C)C(=O)C12CCCCC2 [compound (I.29), N-(2,6-Diisopropylphenyl)-2-(2,4-dioxo-1-pentyl-1,3-diazaspiro[4.5]dec-3-yl)acetamide] | 200 °C
23 | CCCCCCCN1C(=O)N(CC(=O)Nc2c(C(C)C)cccc2C(C)C)C(=O)C12CCCCC2 [compound (I.30), N-(2,6-Diisopropylphenyl)-2-(1-heptyl-2,4-dioxo-1,3-diazaspiro[4.5]dec-3-yl)acetamide] | 208 °C
24 | CC(C)c1cccc(C(C)C)c1NC(=O)CN1C(=O)N(CC2CC2)C2(CCCCC2)C1=O [compound (I.31), 2-(1-Cyclopropylmethyl-2,4-dioxo-1,3-diazaspiro[4.5]dec-3-yl)-N-(2,6-di-isopropylphenyl)acetamide] | 240 °C
25 | CC(C)c1cccc(C(C)C)c1NC(=O)CN1C(=O)N(CC(C)(C)C)C2(CCCCC2)C1=O [compound (I.32), N-(2,6-Diisopropylphenyl)-2-[1-(2,2-dimethylpropyl)-2,4-dioxo-1,3-diazaspiro[4.5]dec-3-yl]acetamide] | 250 °C

More lines, now with the values ahead:

Row | melting point | Structure (SMILES)
26 | 229 °C | COc1ccccc1N1C(=O)N(CC(=O)Nc2c(C(C)C)cccc2C(C)C)C(=O)C12CCCCC2 [compound (I.33), N-(2,6-Diisopropylphenyl)-2-[1-(2-methoxyphenyl)-2,4-dioxo-1,3-diazaspiro[4.5]dec-3-yl]acetamide]
27 | 278 °C | Cc1ccc(N2C(=O)N(CC(=O)Nc3c(C(C)C)cccc3C(C)C)C(=O)C23CCCC3)cc1 [compound (I.34), N-(2,6-Diisopropylphenyl)-2-(2,4-dioxo-1-p-tolyl-1,3-diazaspiro[4.4]non-3-yl)acetamide]
28 | 205 °C | CCCCCCN1C(=O)N(CC(=O)Nc2c(C(C)C)cccc2C(C)C)C(=O)C12CCCCC2 [compound (I.35), N-(2,6-Diisopropylphenyl)-2-(1-hexyl-2,4-dioxo-1,3-diazaspiro[4.5]dec-3-yl)acetamide]
29 | 221 °C | CCc1ccc(N2C(=O)N(CC(=O)Nc3c(C(C)C)cccc3C(C)C)C(=O)C23CCCCC3)cc1 [compound (I.36), N-(2,6-Diisopropylphenyl)-2-[1-(4-ethylphenyl)-2,4-dioxo-1,3-diazaspiro[4.5]dec-3-yl]acetamide]
30 | 246 °C | CCc1ccc(N2C(=O)N(CC(=O)Nc3c(C(C)C)cccc3C(C)C)C(=O)C23CCCC3)cc1 [compound (I.37), N-(2,6-Diisopropylphenyl)-2-[1-(4-ethylphenyl)-2,4-dioxo-1,3-diazaspiro[4.4]non-3-yl]acetamide]
31 | 220 °C | CCCCc1ccc(N2C(=O)N(CC(=O)Nc3c(C(C)C)cccc3C(C)C)C(=O)C23CCCCC3)cc1 [compound (I.38), 2-[1-(4-Butylphenyl)-2,4-dioxo-1,3-diazaspiro[4.5]dec-3-yl]-N-(2,6-diisopropylphenyl)acetamide]
32 | 228 °C | CCCCc1ccc(N2C(=O)N(CC(=O)Nc3c(C(C)C)cccc3C(C)C)C(=O)C23CCCC3)cc1 [compound (I.40), 2-[1-(4-Butylphenyl)-2,4-dioxo-1,3-diazaspiro[4.4]non-3-yl]-N-(2,6-diisopropylphenyl)acetamide]
33 | 232 °C | CC(C)c1cccc(C(C)C)c1NC(=O)CN1C(=O)N(c2ccc(OCc3ccccc3)cc2)C2(CCCC2)C1=O [compound (I.41), 2-[1-(4-Benzyloxyphenyl)-2,4-dioxo-1,3-diazaspiro[4.4]non-3-yl]-N-(2,6-di-isopropylphenyl)acetamide]
34 | 230 °C | CC(C)c1cccc(C(C)C)c1NC(=O)CN1C(=O)N(c2ccc(CO)cc2)C2(CCCCC2)C1=O [compound (I.42), N-(2,6-Diisopropylphenyl)-2-[1-(4-hydroxymethylphenyl)-2,4-dioxo-1,3-diazaspiro[4.5]dec-3-yl]acetamide]
35 | 183 °C | CCCCCCCCCN1C(=O)N(CC(=O)Nc2c(C(C)C)cccc2C(C)C)C(=O)C12CCCCC2 [compound (I.43), N-(2,6-Diisopropylphenyl)-2-(1-nonyl-2,4-dioxo-1,3-diazaspiro[4.5]dec-3-yl)acetamide]
36 | 202 °C | CCCCCCCCN1C(=O)N(CC(=O)Nc2c(C(C)C)cccc2C(C)C)C(=O)C12CCCCC2 [compound (I.44), N-(2,6-Diisopropylphenyl)-2-(1-octyl-2,4-dioxo-1,3-diazaspiro[4.5]dec-3-yl)acetamide]
